Data reported in article PMC7736581, “Activation of the IRE1 RNase through remodeling of the kinase front pocket by ATP-competitive ligands” (Nature Communications, 2020).
Like-named read-outs stand apart in the source and are kept apart here.

Columns and labels:
Test in all cases: biochemical
[1] = target: Inositol-Requiring Enzyme 1 (IRE1) (Homo sapiens, UniProt O75460); set-up: gene ERN1; IRE1 cytoplasmic kinase-RNase construct; kinetic fluorescence RNA cleavage (FAM/BHQ XBP1 stem-loop) by IRE1 LKR Q470-L977
Experimental: A 5′-Carboxyfluorescein (FAM)-and 3′-Black Hole Quencher (BHQ)-labeled single stem-loop mini-substrate containing XBP1 sequence (sequence reported in Supplementary Table 4) was used as substrate for cleavage by IRE1 LKR (Q470-L977) or IRE1 KR (G547-L977) in 20 mM HEPES pH 7.5, 50 mM potassium acetate, 1 mM magnesium acetate, 1 mM dithiothreitol, 0.05% v/v TritonX-100. Concentrations were as follows: 8 nM IRE1 LKR and 200 nM RNA substrate; 22 nM IRE1 KR-0P and 200 nM RNA substrate; 2 nM IRE1 KR 3P and 500 nM RNA substrate. RNA cleavage was measured kinetically over an hour at room temperature as an increase in fluorescence. The final reaction was carried out in 20 µL in 384-well plates. Samples were run in duplicate. To investigate whether this peculiar conformation had any role in the mechanism of activation of G-1749, we evaluated different tails to substitute the ethyl carbamate on the naphthyl moiety (Fig. 3, Supplementary Table 2). […] This is likely due to clashes with residues lining the front pocket, which in turn would force the tails to occupy the back pocket and break the salt bridge, thereby causing RNase inhibition. […] Experiments in KMS-11 cells (Fig. 3b, c, right panels) confirmed the effect of these tail modifications on IRE1 RNase activation. […] The chemical substituents tolerated by the front pocket seem to be very limited: even a minor substitution of the carbamate oxygen atom to a larger [compound left out], from ethyl carbamate to propyl amide (compound 6), or from methyl carbamate to methyl or ethyl amide (compound 4 or 5, respectively), or increasing the tail length by one atom, from ethyl to propyl carbamate (compound 11), is enough to impart a switch from activation to inhibition (Fig. 3b, c). […] RNA cleavage was measured by a kinetic fluorescence assay using an XBP1-like RNA hairpin substrate and IRE1 LKR construct (Q470-L977). Background from the no-protein control was subtracted from signal before calculating fold change. Source data are provided as a Source Data file. Data are presented as the mean for measurements from two independent experiments (n = 2). c RNA levels for IRE1 RNase product XBP1s measured by bDNA assay of lysates from KMS-11 cells treated with compounds for 4 h. Background from the no-RNA control was subtracted from signal before calculating fold change. Source data are provided as a Source Data file. Data are presented as the mean for measurements from two independent experiments (n = 2). d, e Analytical Ultracentrifugation sedimentation velocity (SV-AUC) experiments for (d), IRE1 LKR (Q470-L977) unphosphorylated and autophosphorylated and (e), IRE1 LKR unphosphorylated in the presence of slight excess G-9807 and G-1749. Calculated sedimentation coefficients for IRE1 monomer (3.1 svedbergs) and dimer (4.6 svedbergs) are highlighted by dotted lines. Source data are provided as a Source Data file.

PERK = target: T1, PERK (Homo sapiens, UniProt Q9NZJ5); set-up: 33P incorporation kinase assay (Reaction Biology), myelin basic protein substrate; conditions: 10 uM ATP
T1 construct: gene EIF2AK3
T1 sequence (Q9NZJ5 1-1116): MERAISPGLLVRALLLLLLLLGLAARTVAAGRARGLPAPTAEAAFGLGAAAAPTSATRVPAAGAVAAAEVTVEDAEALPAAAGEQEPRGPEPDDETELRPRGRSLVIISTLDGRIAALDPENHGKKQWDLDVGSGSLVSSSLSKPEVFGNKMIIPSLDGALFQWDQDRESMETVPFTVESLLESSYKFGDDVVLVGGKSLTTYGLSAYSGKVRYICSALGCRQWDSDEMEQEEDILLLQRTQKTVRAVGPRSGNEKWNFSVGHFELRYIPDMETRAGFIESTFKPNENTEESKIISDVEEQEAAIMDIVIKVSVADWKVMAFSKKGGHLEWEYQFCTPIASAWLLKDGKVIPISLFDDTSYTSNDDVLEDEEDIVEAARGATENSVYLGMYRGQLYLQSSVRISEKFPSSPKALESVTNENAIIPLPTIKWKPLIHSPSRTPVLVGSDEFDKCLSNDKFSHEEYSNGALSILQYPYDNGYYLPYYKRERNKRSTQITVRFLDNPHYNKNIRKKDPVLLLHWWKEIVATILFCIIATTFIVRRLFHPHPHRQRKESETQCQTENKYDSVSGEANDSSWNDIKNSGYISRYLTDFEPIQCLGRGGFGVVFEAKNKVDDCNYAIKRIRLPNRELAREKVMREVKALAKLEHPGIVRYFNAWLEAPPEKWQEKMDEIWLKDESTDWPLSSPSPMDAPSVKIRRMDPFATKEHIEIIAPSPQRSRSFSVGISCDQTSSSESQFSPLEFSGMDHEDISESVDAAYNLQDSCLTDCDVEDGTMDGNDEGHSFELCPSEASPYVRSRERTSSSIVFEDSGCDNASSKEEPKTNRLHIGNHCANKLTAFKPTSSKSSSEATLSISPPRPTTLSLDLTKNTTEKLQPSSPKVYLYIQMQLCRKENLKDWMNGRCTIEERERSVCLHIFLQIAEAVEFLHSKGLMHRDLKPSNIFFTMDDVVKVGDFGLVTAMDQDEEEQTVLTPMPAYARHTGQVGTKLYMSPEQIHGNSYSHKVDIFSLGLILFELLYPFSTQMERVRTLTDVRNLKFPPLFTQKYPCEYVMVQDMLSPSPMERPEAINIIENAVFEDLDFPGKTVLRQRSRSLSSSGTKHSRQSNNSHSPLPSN
Description: We set out to identify allosteric activators of IRE1 RNase by screening internal compound libraries for binding to the kinase, using a published ATP-competitive TR-FRET assay. We then tested kinase binders to assess RNase modulation in an IRE1-specific kinetic RNA cleavage assay that uses the cytoplasmic construct IRE1-LKR (Q470-L977) (Supplementary Fig. 1a). […] Next, we tested these compounds in KMS-11 multiple myeloma cells, known to express functional IRE1 and strongly depend on the IRE1 pathway due to hyper-production of immunoglobulins in the ER[31]. We measured mRNA levels of XBP1s and the well-established RIDD target DGAT2[22] (Fig. 1c and Supplementary Fig. 1c, respectively) using a branched DNA (bDNA) assay. […] Importantly, neither G-9807 nor G-1749 inhibit PERK (Supplementary Table 1).

PRKAA1 = PRKAA1 (Homo sapiens, UniProt Q13131); set-up: Invitrogen kinase panel: Z'Lyte activity (ATP at Km) or LanthaScreen competitive ATP-site binding, percent inhibition
[2] = RNase activation, read-out: EC50 (RNase biochemical assay), activators

Inositol-Requiring Enzyme 1 (IRE1), sequence (O75460 547-977): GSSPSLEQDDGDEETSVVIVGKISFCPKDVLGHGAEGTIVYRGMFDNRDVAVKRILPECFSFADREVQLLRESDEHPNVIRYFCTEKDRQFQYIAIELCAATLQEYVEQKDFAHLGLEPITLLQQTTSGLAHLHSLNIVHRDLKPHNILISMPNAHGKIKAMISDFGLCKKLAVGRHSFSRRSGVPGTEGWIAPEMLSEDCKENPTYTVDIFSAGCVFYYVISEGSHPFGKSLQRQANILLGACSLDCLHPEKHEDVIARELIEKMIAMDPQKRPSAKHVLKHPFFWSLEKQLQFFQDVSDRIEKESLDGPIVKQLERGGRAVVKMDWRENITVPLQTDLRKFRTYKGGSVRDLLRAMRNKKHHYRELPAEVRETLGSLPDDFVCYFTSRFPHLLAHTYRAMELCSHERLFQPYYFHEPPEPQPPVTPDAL
PRKAA1, sequence (Q13131 whole entry): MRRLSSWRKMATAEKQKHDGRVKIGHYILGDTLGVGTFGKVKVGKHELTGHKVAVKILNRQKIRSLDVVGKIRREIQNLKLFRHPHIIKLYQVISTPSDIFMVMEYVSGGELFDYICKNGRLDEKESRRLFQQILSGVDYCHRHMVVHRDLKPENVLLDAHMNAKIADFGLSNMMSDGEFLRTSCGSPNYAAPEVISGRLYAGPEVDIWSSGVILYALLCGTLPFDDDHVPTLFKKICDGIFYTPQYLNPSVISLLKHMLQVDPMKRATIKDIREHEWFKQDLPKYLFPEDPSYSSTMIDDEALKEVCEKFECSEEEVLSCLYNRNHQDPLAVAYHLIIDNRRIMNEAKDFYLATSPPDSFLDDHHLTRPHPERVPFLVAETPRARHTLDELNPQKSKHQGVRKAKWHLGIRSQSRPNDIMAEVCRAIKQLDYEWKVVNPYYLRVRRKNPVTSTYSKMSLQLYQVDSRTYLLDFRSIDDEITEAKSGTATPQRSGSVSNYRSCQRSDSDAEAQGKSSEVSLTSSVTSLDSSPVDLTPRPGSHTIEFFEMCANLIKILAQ
PRKAA1, sequence (P54619 whole entry partner): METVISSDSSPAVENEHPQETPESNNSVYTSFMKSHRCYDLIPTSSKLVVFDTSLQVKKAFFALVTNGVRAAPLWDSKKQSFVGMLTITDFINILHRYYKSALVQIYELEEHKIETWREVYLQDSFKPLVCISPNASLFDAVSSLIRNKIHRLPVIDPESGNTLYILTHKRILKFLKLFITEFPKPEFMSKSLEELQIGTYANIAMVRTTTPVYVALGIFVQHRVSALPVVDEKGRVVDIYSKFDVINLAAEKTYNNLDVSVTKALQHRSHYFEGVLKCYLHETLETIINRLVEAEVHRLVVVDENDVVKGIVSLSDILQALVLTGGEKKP
PRKAA1, sequence (Q9Y478 whole entry partner): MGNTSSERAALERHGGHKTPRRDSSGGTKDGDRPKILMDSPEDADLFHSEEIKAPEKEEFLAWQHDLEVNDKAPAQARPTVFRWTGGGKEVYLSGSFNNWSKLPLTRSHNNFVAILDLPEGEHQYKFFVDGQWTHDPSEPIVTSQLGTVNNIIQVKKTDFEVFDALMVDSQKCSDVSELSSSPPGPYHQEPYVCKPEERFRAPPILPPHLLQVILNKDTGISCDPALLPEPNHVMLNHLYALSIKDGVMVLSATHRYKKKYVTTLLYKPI

Row | EC50 ([1]; RNase inhibition, read-out: EC50 (RNase biochemical assay), inhibitors) | inhibition at 1 µM (PERK) | EC50 [1, 2] | inhibition at 1 µM (PRKAA1) | Structure (SMILES)
1 | 17 ± 4 nM | 5.4% |  |  | Cc1ccc2c(NS(=O)(=O)c3ccccc3Cl)cccc2c1Oc1ncccc1-c1ccnc(N[C@H]2CCCNC2)n1 [AMG-18]
2 |  |  | 7 ± 1 nM | 12% | CC#CC(=O)Nc1cccc2c(Oc3ncccc3-c3ccnc(N[C@H]4CCCNC4)n3)c(C)ccc12 [G-7658]
3 |  | 4.5% | 18 ± 3 nM | 96.2% | O=c1cc(-c2n[nH]c3ncc(-c4c(F)cccc4F)cc23)nc(N2CCC(O)CC2)[nH]1 [G-9807]

Row | Structure (SMILES) | EC50 ([1]; RNase inhibition, read-out: EC50 (RNase biochemical assay), inhibitors) | inhibition at 1 µM (PERK) | EC50 [1, 2] | inhibition at 1 µM (PRKAA1)
4 | CCOC(=O)Nc1cccc2c(Oc3ncccc3-c3ccnc(N[C@H]4CCCNC4)n3)c(C)ccc12 [G-1749] |  | 9.9% | 9 ± 3 nM | 0%
